According to patent US8431563B2 (priority 2010, dated 2013):

Biological target: T1, GK-GKRP (Homo sapiens, UniProt Q14397)
T1 sequence (Q14397 1-625): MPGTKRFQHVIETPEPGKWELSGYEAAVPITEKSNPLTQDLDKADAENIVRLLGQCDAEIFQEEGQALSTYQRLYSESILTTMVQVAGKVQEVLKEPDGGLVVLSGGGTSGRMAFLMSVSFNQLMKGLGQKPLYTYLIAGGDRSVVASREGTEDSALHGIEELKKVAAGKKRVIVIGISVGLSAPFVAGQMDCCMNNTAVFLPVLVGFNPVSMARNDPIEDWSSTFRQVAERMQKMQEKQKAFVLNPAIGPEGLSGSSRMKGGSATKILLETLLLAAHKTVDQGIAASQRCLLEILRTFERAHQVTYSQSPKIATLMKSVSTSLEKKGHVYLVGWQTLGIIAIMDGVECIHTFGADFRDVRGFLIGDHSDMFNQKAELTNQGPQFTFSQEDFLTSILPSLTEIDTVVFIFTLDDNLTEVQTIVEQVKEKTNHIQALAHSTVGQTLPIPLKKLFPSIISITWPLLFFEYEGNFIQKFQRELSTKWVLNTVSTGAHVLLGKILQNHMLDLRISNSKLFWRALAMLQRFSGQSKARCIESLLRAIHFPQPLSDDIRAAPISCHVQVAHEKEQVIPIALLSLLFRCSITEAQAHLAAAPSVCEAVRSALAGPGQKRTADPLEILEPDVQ
Experiment: biochemical
Conditions: GK-GKRP IC50 (Binding)

| IC50 [µM] | SMILES |
| --- | --- |
| 0.323 | CC(O)(c1ccc(N2CCN(S(=O)(=O)c3cccs3)C[C@@H]2CNS(=O)(=O)c2ccc(F)cc2)cc1)C(F)(F)F (mixture of isomers) [Example 254, 4-fluoro-N-(((2S)-4-(2-thiophenylsulfonyl)-1-(4-(2,2,2-trifluoro-1-hydroxy-1-methylethyl)phenyl)-2-piperazinyl)methyl)benzenesulfonamide] |
| 0.002 | CC(O)(c1ccc(N2CCN(S(=O)(=O)c3cccs3)C[C@@H]2CN(c2ccc(F)cc2)S(C)(=O)=O)cc1)C(F)(F)F (mixture of isomers) [Example 255, N-(4-fluorophenyl)-N-(((2R)-4-(2-thiophenylsulfonyl)-1-(4-(2,2,2-trifluoro-1-hydroxy-1-methylethyl)phenyl)-2-piperazinyl)methyl)methanesulfonamide] |
| 0.023 | CC(=O)N(C[C@H]1CN(S(=O)(=O)c2cccs2)CCN1c1ccc(C(C)(O)C(F)(F)F)cc1)c1ccc(F)cc1 (mixture of isomers) [Example 256, N-(4-fluorophenyl)-N-(((2S)-4-(2-thiophenylsulfonyl)-1-(4-(2,2,2-trifluoro-1-hydroxy-1-methylethyl)phenyl)-2-piperazinyl)methyl)acetamide] |
| 0.112 | CC#CC1CN(S(=O)(=O)c2nnc(N)s2)CCN1c1ccc(C(O)(C(F)(F)F)C(F)(F)F)cc1 (racemic) [Example 249, 2-(4-(4-((5-amino-1,3,4-thiadiazol-2-yl)sulfonyl)-2-(1-propyn-1-yl)-1-piperazinyl)phenyl)-1,1,1,3,3,3-hexafluoro-2-propanol] |
| 0.015 | CC#CC1CN(S(=O)(=O)c2cnc(N)c(F)c2)CCN1c1ccc(C(O)(C(F)(F)F)C(F)(F)F)cc1 (racemic) [Example 250, 2-(4-(4-((6-amino-5-fluoro-3-pyridinyl)sulfonyl)-2-(1-propyn-1-yl)-1-piperazinyl)phenyl)-1,1,1,3,3,3-hexafluoro-2-propanol] |
| 0.229 | CC(O)(c1cnc(-c2ccc(S(=O)(=O)c3ccc(N)nc3)cc2)nc1)C(F)(F)F (racemic) [Example 265, 2-(2-(4-((6-amino-3-pyridinyl)sulfonyl)phenyl)-5-pyrimidinyl)-1,1,1-trifluoro-2-propanol] |
| 0.015 | CC#CC1CN(S(=O)(=O)c2ccc(N)nc2)CCN1c1ncc(C(C)(O)C(F)(F)F)cn1 (single isomer, unassigned) [Example 251 First Eluting Peak from Set One, 2-(2-(4-((6-amino-3-pyridinyl)sulfonyl)-2-(1-propyn-1-yl)-1-piperazinyl)-5-pyrimidinyl)-1,1,1-trifluoro-2-propanol] |
| 11.3 | CC#CC1CN(S(=O)(=O)c2ccc(N)nc2)CCN1c1ncc(C(C)(O)C(F)(F)F)cn1 (single isomer, unassigned) [Example 251 First Eluting Peak from Set Two, 2-(2-(4-((6-amino-3-pyridinyl)sulfonyl)-2-(1-propyn-1-yl)-1-piperazinyl)-5-pyrimidinyl)-1,1,1-trifluoro-2-propanol] |
| 0.009 | CC#CC1CN(S(=O)(=O)c2ccc(N)nc2)CCN1c1ncc(C(C)(O)C(F)(F)F)cn1 (single isomer, unassigned) [Example 251 Second Eluting Peak from Set One, 2-(2-(4-((6-amino-3-pyridinyl)sulfonyl)-2-(1-propyn-1-yl)-1-piperazinyl)-5-pyrimidinyl)-1,1,1-trifluoro-2-propanol] |
| 15.3 | CC#CC1CN(S(=O)(=O)c2ccc(N)nc2)CCN1c1ncc(C(C)(O)C(F)(F)F)cn1 (single isomer, unassigned) [Example 251 Second Eluting Peak from Set Two, 2-(2-(4-((6-amino-3-pyridinyl)sulfonyl)-2-(1-propyn-1-yl)-1-piperazinyl)-5-pyrimidinyl)-1,1,1-trifluoro-2-propanol] |
| 0.251 | CC(O)(c1ccc(N2CCN(S(=O)(=O)c3cccs3)C[C@@H]2CN2CCNC(C(F)(F)F)C2)cc1)C(F)(F)F (single isomer, unassigned) [Example 270 Peak 1] |
| 0.463 | CC(O)(c1ccc(N2CCN(S(=O)(=O)c3cccs3)C[C@@H]2CN2CCNC(C(F)(F)F)C2)cc1)C(F)(F)F (single isomer, unassigned) [Example 270 Peak 2] |
| 0.743 | CC(O)CC1CN(S(=O)(=O)c2ccc(N)nc2)CCN1c1ncc(C(O)(C(F)(F)F)C(F)(F)F)cn1 (stereo not drawn) [Example 244, 2-(2-(4-((6-amino-3-pyridinyl)sulfonyl)-2-(2-hydroxypropyl)-1-piperazinyl)-5-pyrimidinyl)-1,1,1,3,3,3-hexafluoro-2-propanol] |
| 0.021 | CC#C[C@H]1CN(S(=O)(=O)c2ccccc2)CCN1c1ccc(C(O)(C(F)(F)F)C(F)(F)F)cc1 [Example 247, 1,1,1,3,3,3-hexafluoro-2-(4-((2S)-4-(phenylsulfonyl)-2-(1-propyn-1-yl)-1-piperazinyl)phenyl)-2-propanol] |
| 0.015 | CC#CC1CN(S(=O)(=O)c2nccs2)CCN1c1ccc(C(O)(C(F)(F)F)C(F)(F)F)cc1 (stereo not drawn) [Example 248] |
| 0.834 | CC#Cc1cc(C(O)(C(F)(F)F)C(F)(F)F)ccc1N1CCN(S(=O)(=O)c2cccs2)CC1 [Example 262, 1,1,1,3,3,3-hexafluoro-2-(3-(1-propyn-1-yl)-4-(4-(2-thiophenylsulfonyl)-1-piperazinyl)phenyl)-2-propanol] |
| 0.217 | C[C@H]1COCC(=O)N1C[C@H]1CN(S(=O)(=O)c2cccs2)CCN1c1ccc([C@](C)(O)C(F)(F)F)cc1 [Example 272, (S)-5-methyl-4-(((S)-4-(tiophen-2-ylsulfonyl)-1-(4-((S)-1,1,1-trifluoro-2-hydroxypropan-2-yl)phenyl)piperazin-2-yl)methyl)morpholin-3-one] |
| 0.049 | Nc1ccc(S(=O)(=O)N2CCN(c3ccc(C(O)(C(F)(F)F)C(F)(F)F)cc3)[C@@H](CS(=O)(=O)c3ccccc3)C2)cn1 [Example 273, 2-(4-((2R)-4-((6-amino-3-pyridinyl)sulfonyl)-2-((phenylsulfonyl)methyl)-1-piperazinyl)phenyl)-1,1,1,3,3,3-hexafluoro-2-propanol] |

| SMILES | IC50 [µM] |
| --- | --- |
| CC(O)(c1ccc(N2CCN(S(=O)(=O)c3cccs3)C[C@@H]2CN2C(=O)NC(=O)C23CCC3)cc1)C(F)(F)F (mixture of isomers) [Example 236, 5-(((2S)-4-(2-thiophenylsulfonyl)-1-(4-(2,2,2-trifluoro-1-hydroxy-1-methylethyl)phenyl)-2-piperazinyl)methyl)-5,7-diazaspiro[3.4]octane-6,8-dione] | 0.379 |
| CC(C)S(=O)(=O)NC[C@H]1CN(S(=O)(=O)c2cccs2)CCN1c1ccc(C(C)(O)C(F)(F)F)cc1 (mixture of isomers) [Example 237, N-(((2S)-4-(thiophen-2-ylsulfonyl)-1-(4-(1,1,1-trifluoro-2-hydroxypropan-2-yl)phenyl)piperazin-2-yl)methyl)propane-2-sulfonamide] | 0.335 |
| CC(C)N1C(=O)N(C[C@H]2CN(S(=O)(=O)c3cccs3)CCN2c2ccc(C(C)(O)C(F)(F)F)cc2)C(C)(C)C1=O (mixture of isomers) [Example 242, 5,5-dimethyl-3-(1-methylethyl)-1-(((2S)-4-(2-thiophenylsulfonyl)-1-(4-(2,2,2-trifluoro-1-hydroxy-1-methylethyl)phenyl)-2-piperazinyl)methyl)-2,4-imidazolidinedione] | 0.019 |
| CC(C)CS(=O)(=O)N(C[C@H]1CN(S(=O)(=O)c2cccs2)CCN1c1ccc(C(C)(O)C(F)(F)F)cc1)c1cccnc1 (mixture of isomers) [Example 253, 2-methyl-N-3-pyridinyl-N-(((2R)-4-(2-thiophenylsulfonyl)-1-(4-(2,2,2-trifluoro-1-hydroxy-1-methylethyl)phenyl)-2-piperazinyl)methyl)-1-propanesulfonamide] | 0.035 |
| CC1(C)C(=O)NCCN1C[C@H]1CN(S(=O)(=O)c2ccc(N)nc2)CCN1c1ncc(C(O)(C(F)(F)F)C(F)(F)F)cn1 [Example 235, 4-(((2S)-4-((6-amino-3-pyridinyl)sulfonyl)-1-(5-(2,2,2-trifluoro-1-hydroxy-1-(trifluoromethyl)ethyl)-2-pyrimidinyl)-2-piperazinyl)methyl)-3,3-dimethyl-2-piperazinone] | 0.008 |
| CCC(C)S(=O)(=O)NC[C@H]1CN(S(=O)(=O)c2cccs2)CCN1c1ccc(C(C)(O)C(F)(F)F)cc1 (stereo partly drawn) [Example 238, N-(((2S)-4-(2-thiophenylsulfonyl)-1-(4-(2,2,2-trifluoro-1-hydroxy-1-methylethyl)phenyl)-2-piperazinyl)methyl)-2-butanesulfonamide] | 0.204 |
| Nc1ccc(S(=O)(=O)N2CCN(c3ncc(C(O)(C(F)(F)F)C(F)(F)F)cn3)[C@@H](CN3C4CCC3COC4)C2)cn1 [Example 271, 2-(2-((2S)-4-((6-amino-3-pyridinyl)sulfonyl)-2-(3-oxa-8-azabicyclo[3.2.1]oct-8-ylmethyl)-1-piperazinyl)-5-pyrimidinyl)-1,1,1,3,3,3-hexafluoro-2-propanol] | 0.003 |

Biological target: T1, GK-GKRP
Experiment: biochemical
Conditions: not given

| SMILES | EC50 [µM] |
| --- | --- |
| CC(O)(c1ccc(N2CCN(S(=O)(=O)c3cccs3)C[C@@H]2CN2C(=O)NC(=O)C23CCC3)cc1)C(F)(F)F (mixture of isomers) [Example 236, 5-(((2S)-4-(2-thiophenylsulfonyl)-1-(4-(2,2,2-trifluoro-1-hydroxy-1-methylethyl)phenyl)-2-piperazinyl)methyl)-5,7-diazaspiro[3.4]octane-6,8-dione] | 0.363 |
| CC(C)S(=O)(=O)NC[C@H]1CN(S(=O)(=O)c2cccs2)CCN1c1ccc(C(C)(O)C(F)(F)F)cc1 (mixture of isomers) [Example 237, N-(((2S)-4-(thiophen-2-ylsulfonyl)-1-(4-(1,1,1-trifluoro-2-hydroxypropan-2-yl)phenyl)piperazin-2-yl)methyl)propane-2-sulfonamide] | 0.632 |
| CC(C)N1C(=O)N(C[C@H]2CN(S(=O)(=O)c3cccs3)CCN2c2ccc(C(C)(O)C(F)(F)F)cc2)C(C)(C)C1=O (mixture of isomers) [Example 242, 5,5-dimethyl-3-(1-methylethyl)-1-(((2S)-4-(2-thiophenylsulfonyl)-1-(4-(2,2,2-trifluoro-1-hydroxy-1-methylethyl)phenyl)-2-piperazinyl)methyl)-2,4-imidazolidinedione] | 0.029 |
| CC1(C)C(=O)NCCN1C[C@H]1CN(S(=O)(=O)c2ccc(N)nc2)CCN1c1ncc(C(O)(C(F)(F)F)C(F)(F)F)cn1 [Example 235, 4-(((2S)-4-((6-amino-3-pyridinyl)sulfonyl)-1-(5-(2,2,2-trifluoro-1-hydroxy-1-(trifluoromethyl)ethyl)-2-pyrimidinyl)-2-piperazinyl)methyl)-3,3-dimethyl-2-piperazinone] | 0.013 |
| CCC(C)S(=O)(=O)NC[C@H]1CN(S(=O)(=O)c2cccs2)CCN1c1ccc(C(C)(O)C(F)(F)F)cc1 (stereo partly drawn) [Example 238, N-(((2S)-4-(2-thiophenylsulfonyl)-1-(4-(2,2,2-trifluoro-1-hydroxy-1-methylethyl)phenyl)-2-piperazinyl)methyl)-2-butanesulfonamide] | 0.27 |
